According to patent US11473151B2, “Diagnostic and therapeutic methods for cancer” (Genentech, Inc., priority 2017, dated 2022):

Tested on: mUC patients (IMvigor210)
Assay: Association between mutations (FMOne panel, single genes and pathways) and response to atezolizumab or TMB
Format: in vivo, human
From the text: In addition, DNA was extracted from FFPE 10 micron sections from 293 patients and submitted to a Clinical Laboratory Improvement Amendments (CLIA)-certified, New York State-accredited, and College of American Pathologists (CAP)-accredited laboratory (Foundation Medicine, Cambridge, Mass.) for targeted next-generation sequencing (NGS)-based genomic profiling. Adaptor-ligated DNA underwent hybrid capture for all coding exons of 395 cancer-related genes plus select introns from 31 genes frequently rearranged in cancer (FMOne panel).
Captured libraries were sequenced to a median exon coverage depth of >500× (DNA) or 3M unique reads (RNA) using Agilent SURESELECT® v5 kit at 51 Mb on the ILLUMINA® HISEQ® 2500, and resultant sequences were analyzed for base substitutions, small insertions and deletions (indels), copy number alterations (focal amplifications and homozygous deletions), and gene fusions/rearrangements, as previously described (Frampton et al. Nat. Biotechnol. 31:1023-1031, 2013). Frequent germline variants from the 1000 Genomes Project (dbSNP142) were removed. To maximize mutation-detection accuracy (sensitivity and specificity) in impure clinical specimens, the test was previously optimized and validated to detect base substitutions at a ≥5% mutant allele frequency (MAF), indels with a ≥10% MAF with ≥99% accuracy, and fusions occurring within baited introns/exons with >99% sensitivity (Frampton et al. supra). Known confirmed somatic alterations deposited in the Catalog of Somatic Mutations in Cancer (COSMIC v62) are called at allele frequencies ≥1% (Forbes et al. Nucleic Acids Res. 39:D945-D950, 2011).
From the FMOne panel, tumor mutational burden was calculated from the number of short variants in coding regions (substitutions and indels, including synonymous alterations) that were detected. Known and predicted germline alterations as well as known somatic and likely somatic variants are not counted. The mutation burden per Mb is the number of mutations counted divided by the Mb of genomic target territory of the FMOne panel. Unless otherwise indicated, FMOne-based mutation burden was used for all analyses around mutation burden.
For each gene, a patient was called mutant if a known or likely mutation was reported for that gene. For pathway-based analyses, a patient was called mutant in a pathway if any gene within the pathway was reported to have a known or likely mutation. Otherwise, a patient was considered to be non-mutant. A Fisher's Exact Test was used to determine whether the number of mutant patients differed between responders (complete and partial responders) and non-responders (stable and progressive disease). An association between mutation status and mutation burden was tested using a Wilcoxon Rank Sum Test. Single gene p-values were corrected for the number of tests performed using Benjamini and Hochberg adjustment. For pathway-based analyses, nominal p-values are reported.

Work on “atezolizumab: anti-PD-L1 antibody (Genentech), CAS Registry Number 1422185-06-5, also known as MPDL3280A” yielded an estimate (IKBKE mutation status vs response (CR/PR vs. SD/PD)) of 0, an estimate (INPP4B mutation status vs response (CR/PR vs. SD/PD)) of 0.00E+00 and an estimate (IRS2 mutation status vs response (CR/PR vs. SD/PD)) of 4.96E−01. The estimate (JAK1 mutation status vs response (CR/PR vs. SD/PD)) was 0.00E+00, the estimate (JAK2 mutation status vs response (CR/PR vs. SD/PD)) was 3.33E−01 and the estimate (JUN mutation status vs response (CR/PR vs. SD/PD)) was “Inf”. The estimate (KDM5A mutation status vs response (CR/PR vs. SD/PD)) was “Inf”, the estimate (KDM5C mutation status vs response (CR/PR vs. SD/PD)) was 3.30E−01 and the estimate (KDM6A mutation status vs response (CR/PR vs. SD/PD)) was 0.5153. It also gave an estimate (KDR mutation status vs response (CR/PR vs. SD/PD)) of 0, an estimate (KEAP1 mutation status vs response (CR/PR vs. SD/PD)) of 0 and an estimate (KEL mutation status vs response (CR/PR vs. SD/PD)) of 0. The estimate (KIT mutation status vs response (CR/PR vs. SD/PD)) was 0.3333, the estimate (KRAS mutation status vs response (CR/PR vs. SD/PD)) was 1.346 and the estimate (LRP1B mutation status vs response (CR/PR vs. SD/PD)) was 0.1555. For the same substance, the estimate (LRP6 mutation status vs response (CR/PR vs. SD/PD)) was 0, the estimate (LYN mutation status vs response (CR/PR vs. SD/PD)) was “Inf” and the estimate (LZTR1 mutation status vs response (CR/PR vs. SD/PD)) was 0. The estimate (MAGI2 mutation status vs response (CR/PR vs. SD/PD)) was “Inf”, the estimate (MAP2K4 mutation status vs response (CR/PR vs. SD/PD)) was “Inf” and the estimate (MAP3K1 mutation status vs response (CR/PR vs. SD/PD)) was 0.3333. The estimate (MAP3K13 mutation status vs response (CR/PR vs. SD/PD)) was “Inf”, the estimate (MCL1 mutation status vs response (CR/PR vs. SD/PD)) was 0.8339 and the estimate (MDM2 mutation status vs response (CR/PR vs. SD/PD)) was 0.4704. The estimate (MDM4 mutation status vs response (CR/PR vs. SD/PD)) was “Inf”, the estimate (MEN1 mutation status vs response (CR/PR vs. SD/PD)) was 0 and the estimate (MET mutation status vs response (CR/PR vs. SD/PD)) was 0. For the same substance, the estimate (MITF mutation status vs response (CR/PR vs. SD/PD)) was “Inf”, the estimate (MLL2 mutation status vs response (CR/PR vs. SD/PD)) was 1.185 and the estimate (MLL3 mutation status vs response (CR/PR vs. SD/PD)) was 0. It also gave an estimate (MPL mutation status vs response (CR/PR vs. SD/PD)) of 0, an estimate (MSH2 mutation status vs response (CR/PR vs. SD/PD)) of 0.6678 and an estimate (MSH6 mutation status vs response (CR/PR vs. SD/PD)) of 1.346. For the same substance, the estimate (MST1R mutation status vs response (CR/PR vs. SD/PD)) was “Inf”, the estimate (MTOR mutation status vs response (CR/PR vs. SD/PD)) was 0.3333 and the estimate (MUTYH mutation status vs response (CR/PR vs. SD/PD)) was 0.6678. It also gave an estimate (MYC mutation status vs response (CR/PR vs. SD/PD)) of 1.354, an estimate (MYCL1 mutation status vs response (CR/PR vs. SD/PD)) of 0.6605 and an estimate (MYCN mutation status vs response (CR/PR vs. SD/PD)) of 0.2167. The estimate (MYST3 mutation status vs response (CR/PR vs. SD/PD)) was 0.6642, the estimate (NBN mutation status vs response (CR/PR vs. SD/PD)) was 0 and the estimate (NCOR1 mutation status vs response (CR/PR vs. SD/PD)) was 1.179. It also gave an estimate (NF1 mutation status vs response (CR/PR vs. SD/PD)) of 0.4962, an estimate (NF2 mutation status vs response (CR/PR vs. SD/PD)) of 0.3297 and an estimate (NFE2L2 mutation status vs response (CR/PR vs. SD/PD)) of 0.3333. For the same substance, the estimate (NFKBIA mutation status vs response (CR/PR vs. SD/PD)) was “Inf”, the estimate (NKX2−1 mutation status vs response (CR/PR vs. SD/PD)) was “Inf” and the estimate (NOTCH1 mutation status vs response (CR/PR vs. SD/PD)) was 1.005. For the same substance, the estimate (NOTCH2 mutation status vs response (CR/PR vs. SD/PD)) was 0.6678, the estimate (NOTCH3 mutation status vs response (CR/PR vs. SD/PD)) was “Inf” and the estimate (NOTCH4 mutation status vs response (CR/PR vs. SD/PD)) was 0.6678. For the same substance, the estimate (NRAS mutation status vs response (CR/PR vs. SD/PD)) was 0, the estimate (NTRK1 mutation status vs response (CR/PR vs. SD/PD)) was 0 and the estimate (NTRK3 mutation status vs response (CR/PR vs. SD/PD)) was “Inf”. For the same substance, the estimate (NUP93 mutation status vs response (CR/PR vs. SD/PD)) was 0.6678, the estimate (PALB2 mutation status vs response (CR/PR vs. SD/PD)) was 0.6678 and the estimate (PARK2 mutation status vs response (CR/PR vs. SD/PD)) was “Inf”. For the same substance, the estimate (PARP4 mutation status vs response (CR/PR vs. SD/PD)) was “Inf”, the estimate (PAX5 mutation status vs response (CR/PR vs. SD/PD)) was “Inf” and the estimate (PBRM1 mutation status vs response (CR/PR vs. SD/PD)) was 0.1081. The estimate (PDCD1LG2 mutation status vs response (CR/PR vs. SD/PD)) was 0.6678, the estimate (PDGFRA mutation status vs response (CR/PR vs. SD/PD)) was 0 and the estimate (PIK3C2B mutation status vs response (CR/PR vs. SD/PD)) was “Inf”. For the same substance, the estimate (PIK3CA mutation status vs response (CR/PR vs. SD/PD)) was 0.7935, the estimate (PIK3CB mutation status vs response (CR/PR vs. SD/PD)) was “Inf” and the estimate (PIK3CG mutation status vs response (CR/PR vs. SD/PD)) was 0. It also gave an estimate (PIK3R1 mutation status vs response (CR/PR vs. SD/PD)) of 0.3297, an estimate (PIK3R2 mutation status vs response (CR/PR vs. SD/PD)) of 0 and an estimate (PMS2 mutation status vs response (CR/PR vs. SD/PD)) of 0. The estimate (POLE mutation status vs response (CR/PR vs. SD/PD)) was 0, the estimate (PRKCI mutation status vs response (CR/PR vs. SD/PD)) was 0.6678 and the estimate (PRSS8 mutation status vs response (CR/PR vs. SD/PD)) was 0. The estimate (PTCH2 mutation status vs response (CR/PR vs. SD/PD)) was 0, the estimate (PTEN mutation status vs response (CR/PR vs. SD/PD)) was 0.3224 and the estimate (PTPN11 mutation status vs response (CR/PR vs. SD/PD)) was “Inf”. The estimate (PTPRD mutation status vs response (CR/PR vs. SD/PD)) was “Inf”, the estimate (RAD50 mutation status vs response (CR/PR vs. SD/PD)) was “Inf” and the estimate (RAD51C mutation status vs response (CR/PR vs. SD/PD)) was 0. The estimate (RAD51 mutation status vs response (CR/PR vs. SD/PD)) was “Inf”, the estimate (RAF1 mutation status vs response (CR/PR vs. SD/PD)) was 0.5846 and the estimate (RB1 mutation status vs response (CR/PR vs. SD/PD)) was 0.6832. For the same substance, the estimate (RBM10 mutation status vs response (CR/PR vs. SD/PD)) was 0.7743, the estimate (REL mutation status vs response (CR/PR vs. SD/PD)) was 0 and the estimate (RICTOR mutation status vs response (CR/PR vs. SD/PD)) was 0.5352. The estimate (RNF43 mutation status vs response (CR/PR vs. SD/PD)) was 0, the estimate (ROS1 mutation status vs response (CR/PR vs. SD/PD)) was “Inf” and the estimate (RPA1 mutation status vs response (CR/PR vs. SD/PD)) was “Inf”. For the same substance, the estimate (RPTOR mutation status vs response (CR/PR vs. SD/PD)) was “Inf”, the estimate (RUNX1 mutation status vs response (CR/PR vs. SD/PD)) was 0.3333 and the estimate (SDHA mutation status vs response (CR/PR vs. SD/PD)) was “Inf”. The estimate (SETD2 mutation status vs response (CR/PR vs. SD/PD)) was 1.691, the estimate (SF3B1 mutation status vs response (CR/PR vs. SD/PD)) was 0.1646 and the estimate (SLIT2 mutation status vs response (CR/PR vs. SD/PD)) was “Inf”. The estimate (SMAD2 mutation status vs response (CR/PR vs. SD/PD)) was “Inf”, the estimate (SMAD3 mutation status vs response (CR/PR vs. SD/PD)) was “Inf” and the estimate (SMAD4 mutation status vs response (CR/PR vs. SD/PD)) was “Inf”. For the same substance, the estimate (SMARCA4 mutation status vs response (CR/PR vs. SD/PD)) was 0.548, the estimate (SOX2 mutation status vs response (CR/PR vs. SD/PD)) was “Inf” and the estimate (SOX9 mutation status vs response (CR/PR vs. SD/PD)) was “Inf”. For the same substance, the estimate (SOX10 mutation status vs response (CR/PR vs. SD/PD)) was “Inf”.
